Patent publication US8222031B2, “Three-dimensional skin model” (Fraunhofer-Gesellschaft zur Foerderung der angewandten …, priority 2000, dated 2012)

What was measured:
Format in all cases: cell-based
[1] = test system: three-dimensional human skin equivalent; assay: PGE2 synthesis in media supernatants of skin equivalents by ELISA
Experimental: (§1) Substances samples were used equivalently for testing on the human skin equivalent. The objective was to study any irritating effect of the samples on the full skin model after 48 hours of incubation time via the EZ4U metabolism. The secretion of Il1α and PGE2 was supposed to be determined in the media supernatants after 24 hours and after 48 hours by ELISA. Different concentrations of SDS were also run as a reference substance. Finally, all tested skin equivalents were fixed, and the morphological structure was tested and evaluated with stained paraffin sections.
(§2) The skin equivalents each were prepared in a 6-well with 1 ml of medium (KBM without hEGF, without BPE, and with 1.8 mM CaCl2). The samples were incubated on the surface of the corresponding skin models according to the following schedule:
(§3) Day 1: Application of 3 μl substance in the morning and in the afternoon.
Day 2: Media replacement and freezing of media supernatants for Il1α und PGE2 determination. Treatment with 3 μl substance in the morning and in the afternoon.
Day 3: Freezing of media supernatants for Il1α und PGE2 determination. Determination of cell metabolism in EZ4U test over a period of 2 hours. Fixation of slides and preparation of stained paraffin sections for histological evaluation.
(§4) The Il1α and PGE2 content in the media supernatants was determined after 24 hours and 48 hours of incubation of the samples using commercially available ELISA test kits and following their instructions.
The synthesis of the PGE2 inflammatory mediator was quantitatively determined by ELISA in the skin model after a first incubation for 24 hours and subsequent second incubation for 24 hours with test substances in the media supernatants of the equivalents. Samples 186-355 as well as different concentrations of SDS were used as test substances.

[2] = test system: three-dimensional human skin equivalent; assay: EZ4U test: cell metabolism (cytotoxicity) of skin equivalents
Experimental: as §1
The skin equivalents each were prepared in a 6-well with 1 ml of medium (KBM without hEGF, without BPE, and with 1.8 mM CaCl2). The samples were incubated on the surface of the corresponding skin models according to the following schedule: […]
The EZ4U test was performed as followed: After 48 hours of incubation, the cell metabolism of the individual skin equivalents was determined photometrically using a vital stain (tetrazolium derivative). […] Turnover kinetics of the negative controls, positive controls, and the equivalents treated with the samples were recorded over a period of 2 hours at 450 nm (with a reference wavelength of 620 nm). […] Both Ec50 and Et50 were determined for SDS. Et50 was determined according to different exposure times from 1% SDS (3 sec, 30 sec, 60 sec, 5 min, 15 min). […]

[3] = test system: three-dimensional human skin equivalent; assay: Il1α secretion in media supernatants of skin equivalents by ELISA
Experimental: as §1, §2, §3
Day 2: Media replacement and freezing of media supernatants for Il1α und PGE2 determination. […]
as §4
The induced secretion of cytokine Il1α was quantified by ELISA first after 24 hours and then after a subsequent, additional incubation for 24 hours with test substances in the media supernatants of the equivalents. […]

CCCCCCCCCCCCOS(=O)(=O)[O-].[Na+] [SDS]
PGE2 synthesis ([1]; 1% SDS, after the first 24 hours): ≥ 4000 pg/ml per skin equivalent | PGE2 synthesis after the second 24-hour incubation ([1]; SDS, second 24-hour incubation): practically unchanged | PGE2 synthesis ([1]; up to an SDS concentration of 0.5%): almost unchanged low level | Change (in percent) of cell metabolism after 48 hours of incubation, in relation to untreated control (100%) ([2]; AST-2000, SDS 0.73% (Ec50 from dose/effect curve)): 50% | Ec50 (concentration that causes 50% cell damage; irritation threshold) ([2]; SDS reference, dose/effect curve): 0.73% | Il1α secretion, maximum ([3]; 1% SDS, first 24 h incubation): more than 100 pg/ml per skin equivalent | Il1α secretion after the second incubation ([3]; SDS, second 24 h incubation): remain overall elevated
